Test results: patent US12662487B2, “Imidazo[1,2-b][1,2,4]triazol derivatives for use in therapy” (SANOFI, priority 2021, dated 2026)

Assays:
Nurr1 = target: T1, Nurr1 (Mus musculus, UniProt Q06219); test: Activity on neuroblastoma cell lines - Nurr1 modulation (NBRE8x luciferase reporter in N2A cells); format: cell-based; settings: N2A cells stably transfected with NBRE8x luciferase reporter; 24 hours with compound
T1 construct: N2A cells obtained from ATCC were stably transfected with NBRE8x (50-AAGGTCA-30) in tandem coupled with luciferase reporter gene; host or cells: N2A neuroblastoma cells
Procedure: N2A cells obtained from ATCC were stably transfected with NBRE8x (50-AAGGTCA-30) in tandem coupled with luciferase reporter gene. Each NBRE sequence was separated with 5 nucleotides. N2A were grown in 75 cm^2 flask in DMEM containing 10% calf serum, 4.5 g/L glucose and 0.4 mg/ml geneticin. After one week in culture cells were harvested by trypsinization (0.25%, 30 minutes) then plated onto 96 well dishes at the density of 60 000 cell per well in 75 μl of DMEM without phenol red containing 4.5 g/l glucose, 10% lipid free serum from Hyclone. After 24 hours compounds were added (25 μl/well) at different concentration for further 24 hours. Measurement is performed by adding 100 μl of Steadylite per well for 30 minutes and plates were read using microplate […] reader.

Nur77 = target: T2, Nur77 (Homo sapiens, UniProt P22736); test: Activity on HEK - Nur77 modulation (Gal4-DBD luciferase reporter in stable HEK293 cells); format: cell-based; settings: HEK293 cells expressing Gal4-DBD-hNur77 and Pfr-Luc; 24 hours with compound; luminescence
T2 construct: the Pfr-Luc (Gal4-responsive luciferase) reporter sits in the same cells
Procedure: Stable HEK293 cells expressing Gal4-DBD-FL-NOT, -hNur77, -hNOR1 and Pfr-Luc were obtained by limit dilution. HEK cells were grown in 75 cm^2 flask in DMEM high glucose 30-2002™ containing 10% calf serum, hygromycin at a content of 250 μg/ml, doxycycline at a content of 2 μg/ml (to induce expression) and 0.4 mg/ml of penicillin. After one week in culture, cells were harvested by trypsinization then plated onto 96 well dishes at the density of 20 000 cell per well in 75 μl of culture medium. After 24 hours compounds were added (25 μl per well) at different concentration for further 24 hours. The medium was removed and measurement was performed by adding 50 μl of Steadyglo (Promega, E2510) with 50 μl PBS per well for 15 minutes and plates were read using microplate luminescent reader.

T1 sequence (Q06219 whole entry): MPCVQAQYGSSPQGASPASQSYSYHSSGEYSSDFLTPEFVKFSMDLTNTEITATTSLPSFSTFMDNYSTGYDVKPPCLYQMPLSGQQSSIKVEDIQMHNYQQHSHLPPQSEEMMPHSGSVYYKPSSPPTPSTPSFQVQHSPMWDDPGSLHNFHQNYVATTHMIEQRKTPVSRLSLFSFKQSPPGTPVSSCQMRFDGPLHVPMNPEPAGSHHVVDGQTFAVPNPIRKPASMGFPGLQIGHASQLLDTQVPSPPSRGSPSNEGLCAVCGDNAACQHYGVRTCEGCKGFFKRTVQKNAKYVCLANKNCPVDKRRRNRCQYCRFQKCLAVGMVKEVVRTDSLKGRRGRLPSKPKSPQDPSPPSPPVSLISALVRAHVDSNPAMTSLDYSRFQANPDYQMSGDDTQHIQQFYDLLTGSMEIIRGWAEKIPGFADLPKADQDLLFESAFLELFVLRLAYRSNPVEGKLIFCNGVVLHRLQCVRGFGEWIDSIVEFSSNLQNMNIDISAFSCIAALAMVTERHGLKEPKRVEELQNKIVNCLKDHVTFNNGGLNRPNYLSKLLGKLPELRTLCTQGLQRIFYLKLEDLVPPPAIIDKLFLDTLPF
T2 sequence (P22736 360-598 limits assumed): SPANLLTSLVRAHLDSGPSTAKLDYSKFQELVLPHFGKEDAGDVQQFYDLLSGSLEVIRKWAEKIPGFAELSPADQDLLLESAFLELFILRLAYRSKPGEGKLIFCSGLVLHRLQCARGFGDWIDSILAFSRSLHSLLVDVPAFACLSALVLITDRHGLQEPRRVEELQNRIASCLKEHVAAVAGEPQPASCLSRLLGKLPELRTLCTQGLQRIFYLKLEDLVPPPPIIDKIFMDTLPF

## Cn1c(-c2ccc3cc[nH]c3c2)cn2nc(-c3ccc(F)cc3)nc12 [compound (1), 6-[2-(4-fluorophenyl)-4-methyl-imidazo[1,2-b][1,2,4]triazol-5-yl]-1H-indole]
Nurr1
  EC50: 0.7 nM
Nur77
  IC50: 0.03 nM

## Cn1c(-c2cccc(F)c2)cn2nc(-c3ccc(F)cc3)nc12 [compound (2), 5-(3-fluorophenyl)-2-(4-fluorophenyl)-4-methyl-4H-imidazo[1,2-b][1,2,4]triazole]
Nurr1
  EC50: 63 nM

## Cn1c(-c2ccccc2)cn2nc(-c3cccc(CO)c3)nc12 [compound (3), [3-(4-methyl-5-phenyl-4H-imidazo[1,2-b][1,2,4]triazol-2-yl)phenyl]methanol]
Nurr1
  EC50: 0.4 nM
Nur77
  IC50: 0.9 nM
